# Measured values published in US20220105150A1, “AMPHIPATHIC ALPHA-HELICAL ANTIMICROBIAL PEPTIDES TREAT INFECTIONS BY GRAM-NEGATIVE PATHOGENS” (priority 2019, published 2022).
# Square brackets hold non-standard residues; d marks the D form. Peptide text beside a SMILES is read from it. Dab = NCC[C@H](N)C(=O)O
# System: Acinetobacter baumannii strains resistant to Polymyxin B and Colistin
# Conditions: strains resistant to Polymyxin B and Colistin, 24 h
# Excerpt: The coupling procedure used 5 equivalents of Fmoc-D-amino acid or Fmoc-L-amino acid and HCTU (O-(1H-6-chlorobenzotriazole-1-yl)-1,1,3,3-tetramethyluronium hexafluorophosphate) and 6-Cl-HOBt (1-hydroxy-6-chloro-benztriazole) at 4.5 equivalents in DMF (Fisher Scientific, Denver, Colo.) and N-diisopropylethylamine (DIPEA) 10 equivalents (Oakwood Products, Inc., Estill, S.C.) in N-methyl-2-pyrrolidinone (NMP) (Fisher Scientific, Denver, Colo.) with the first and second couplings at room temperature for 30 min each. The deprotection procedure (removal of Fmoc protecting group) was carried out by treatment of the resin with 0.1 M HOBt (1-hydroxybenzotriazole) in DMF with 20% piperidine for 30 min. […] The resin was removed by filtration and peptide was precipitated with ice-cooled ethyl ether on ice for 15 min. Ether was decanted, the peptide was washed twice with ether and redissolved in acetonitrile/water (1:1, with 0.2% TFA) and the solution lyophilized to obtain the crude peptide. • Analytical and Preparative Purification by Reversed-Phase Chromatography: Analytical RP-HPLC: Column, Luna C18 (2), 250×4.6 mm I.D., 5 μm particle size, 100 Å pore size from Phenomenex (Torrance, Calif.). Run conditions: linear AB gradient (1% acetonitrile/min, starting from 2% acetonitrile) at a flow-rate of 1 ml/min, where eluent A is 0.2% aq. TFA and eluent B is 0.18% TFA in acetonitrile; temperature, 30° C. Preparative RP-HPLC: Peptides were dissolved in 0.2% aq. TFA containing 2% acetonitrile to a final concentration of 10 mg/ml. Following filtration through a 0.45 μm Millipore filter and subsequently through a 0.22 μm filter, the peptide solutions were loaded onto the column via multiple 20-ml injections into a 20-ml injection loop at a flow-rate of 10 ml/min. Column, Luna C18 (2), 250×30 mm I.D., 5 um particle size, 100 Å pore size from Phenomenex. Run conditions: 2% acetonitrile/min gradient up to an acetonitrile concentration 10% below that required to elute the peptide during analytical RP-HPLC, then shallow gradient elution (0.05% or 0.1% acetonitrile/min depending on the complexity of impurities near the product of interest on the analytical run of the crude peptide) at a flow-rate of 10 ml/min (same eluents as shown above for analytical RP-HPLC); at room temperature. • Temperature Profiling of Peptides on Reversed-phase HPLC to Measure Dimerization and Oligomerization: Purified peptides were analyzed on an Agilent 1200 series liquid chromatograph for temperature profiling using a Zorbax 300 SB-C8 column (150 mm×2.1 mm I.D.; 5 μm particle size, 300 Å pore size) from Agilent Technologies. […] Temperature profiling was carried out on peptide mixtures run at each temperature in 2° C. increments from 5° C. to 41° C. and 10° C. increments from 5° C. to 75° C. Twenty minutes was allowed between runs for temperature equilibration. • Characterization of Helical Structure: The mean residue molar ellipticities of peptides were determined by circular dichroism (CD) spectroscopy, using a Jasco J-815 spectropolarimeter (Jasco Inc. Easton, Md., USA) at 5° C. under KP buffer (50 mM NaH2PO4/Na2HPO4/100 mM KCl, pH 7.0) as well as in the presence of an α-helix inducing solvent, 2,2,2-trifluoroethanol, TFE, (50 mM NaH2PO4/Na2HPO4/100 mM KCl, pH 7.0 buffer/50% TFE). A 10-fold dilution of an approximately 500 μM stock solution of the peptide analogs was loaded into a 0.1 cm quartz cell and its ellipticity scanned from 195 to 250 nm.
SMILES,MIC MB9941 [µM],MIC MB9949 [µM],MIC MB9951 [µM],MIC MB9952 [µM],MIC MB9953 [µM],MIC MB9955 [µM],MIC MB9963 [µM]
"CC(=O)N[C@H](CCCCN)C(=O)N[C@H](CC(C)C)C(=O)N[C@H](CCCCN)C(=O)N[C@H](CO)C(=O)N[C@H](CC(C)C)C(=O)N[C@H](CC(C)C)C(=O)N[C@H](CCCCN)C(=O)N[C@@H](C(=O)N[C@H](CC(C)C)C(=O)N[C@H](CO)C(=O)N[C@H](C)C(=O)N[C@H](C)C(=O)N[C@H](CCCCN)C(=O)N[C@H](CCCCN)C(=O)N[C@H](CCCCN)C(=O)N[C@H](CCCCN)C(=O)N[C@H](CC(C)C)C(=O)N[C@H](C)C(=O)N[C@@H](C(=O)N[C@H](CC(C)C)C(=O)N[C@H](CC(C)C)C(=O)N[C@H](CCCCN)C(=O)N[C@H](C)C(=O)N[C@H](CC(C)C)C(=O)N[C@H](CO)C(=O)N[C@H](CO)C(N)=O)[C@H](C)O)[C@H](C)O [D103(Lys^1Ser^26-5 Lys-2), Ac-KL(Lys)SLL(Lys)TLSAAK(Lys)(Lys)KLATLL(Lys)ALS(Ser)-amide] (Ac-[dK][dL][dK][dS][dL][dL][dK][dT][dL][dS][dA][dA][dK][dK][dK][dK][dL][dA][dT][dL][dL][dK][dA][dL][dS][dS]-NH2)",0.7,0.7,0.7,0.7,0.7,0.7,0.7
"CC(=O)N[C@H](CCCCN)C(=O)N[C@H](CC(C)C)C(=O)N[C@@H](CCN)C(=O)N[C@H](CO)C(=O)N[C@H](CC(C)C)C(=O)N[C@H](CC(C)C)C(=O)N[C@@H](CCN)C(=O)N[C@@H](C(=O)N[C@H](CC(C)C)C(=O)N[C@H](CO)C(=O)N[C@H](C)C(=O)N[C@H](C)C(=O)N[C@H](CCCCN)C(=O)N[C@@H](CCN)C(=O)N[C@@H](CCN)C(=O)N[C@H](CCCCN)C(=O)N[C@H](CC(C)C)C(=O)N[C@H](C)C(=O)N[C@@H](C(=O)N[C@H](CC(C)C)C(=O)N[C@H](CC(C)C)C(=O)N[C@@H](CCN)C(=O)N[C@H](C)C(=O)N[C@H](CC(C)C)C(=O)N[C@H](CO)C(=O)N[C@H](CO)C(N)=O)[C@H](C)O)[C@H](C)O [D104(Lys^1Ser^26-5 Dab-2), Ac-KL(L-Dab)SLL(L-Dab)TLSAAK(L-Dab)(L-Dab)KLATLL(L-Dab)ALS(Ser)-amide] (Ac-[dK][dL][Dab][dS][dL][dL][Dab][dT][dL][dS][dA][dA][dK][Dab][Dab][dK][dL][dA][dT][dL][dL][Dab][dA][dL][dS][dS]-NH2)",0.7,0.7,0.7,0.7,1.5,0.7,0.7
"CC(=O)N[C@H](CCCCN)C(=O)N[C@H](CC(C)C)C(=O)N[C@H](CCCCN)C(=O)N[C@H](CO)C(=O)N[C@H](CC(C)C)C(=O)N[C@H](CC(C)C)C(=O)N[C@H](CCCCN)C(=O)N[C@@H](C(=O)N[C@H](CC(C)C)C(=O)N[C@H](CO)C(=O)N[C@H](C)C(=O)N[C@H](C)C(=O)N[C@H](CCCCN)C(=O)N[C@H](CCCCN)C(=O)N[C@H](CCCCN)C(=O)N[C@H](CCCCN)C(=O)N[C@H](CC(C)C)C(=O)N[C@H](C)C(=O)N[C@@H](C(=O)N[C@H](CC(C)C)C(=O)N[C@H](CC(C)C)C(=O)N[C@H](CCCCN)C(=O)N[C@H](C)C(=O)N[C@H](CC(C)C)C(=O)N[C@H](CO)C(=O)N[C@H](CCCCN)C(N)=O)[C@H](C)O)[C@H](C)O [D88(Lys^1-6 Lys-2), Ac-KL(Lys)SLL(Lys)TLSAAK(Lys)(Lys)KLATLL(Lys)ALS(Lys)-amide] (Ac-[dK][dL][dK][dS][dL][dL][dK][dT][dL][dS][dA][dA][dK][dK][dK][dK][dL][dA][dT][dL][dL][dK][dA][dL][dS][dK]-NH2)",0.7,0.7,0.3,0.3,0.3,0.3,0.4
"CC(=O)N[C@H](CCCCN)C(=O)N[C@H](CC(C)C)C(=O)N[C@H](CCCN)C(=O)N[C@H](CO)C(=O)N[C@H](CC(C)C)C(=O)N[C@H](CC(C)C)C(=O)N[C@H](CCCN)C(=O)N[C@@H](C(=O)N[C@H](CC(C)C)C(=O)N[C@H](CO)C(=O)N[C@H](CCCN)C(=O)N[C@H](C)C(=O)N[C@H](CCCCN)C(=O)N[C@H](C)C(=O)N[C@H](C)C(=O)N[C@H](CCCCN)C(=O)N[C@H](CC(C)C)C(=O)N[C@H](CCCN)C(=O)N[C@@H](C(=O)N[C@H](CC(C)C)C(=O)N[C@H](CC(C)C)C(=O)N[C@H](CCCN)C(=O)N[C@H](C)C(=O)N[C@H](CC(C)C)C(=O)N[C@H](CO)C(=O)N[C@H](CCCN)C(N)=O)[C@H](C)O)[C@H](C)O [D85(Lys^1-6Orn-1), Ac-KL(Orn)SLL(Orn)TLS(Orn)AKAAKL(Orn)TLL(Orn)ALS(Orn)-amide]",0.7,0.7,0.7,0.4,0.4,0.4,0.4
"CC(=O)N[C@H](CCCCN)C(=O)N[C@H](CC(C)C)C(=O)N[C@@H](CCN)C(=O)N[C@H](CO)C(=O)N[C@H](CC(C)C)C(=O)N[C@H](CC(C)C)C(=O)N[C@@H](CCN)C(=O)N[C@@H](C(=O)N[C@H](CC(C)C)C(=O)N[C@H](CO)C(=O)N[C@H](C)C(=O)N[C@H](C)C(=O)N[C@H](CCCCN)C(=O)N[C@@H](CCN)C(=O)N[C@@H](CCN)C(=O)N[C@H](CCCCN)C(=O)N[C@H](CC(C)C)C(=O)N[C@H](C)C(=O)N[C@@H](C(=O)N[C@H](CC(C)C)C(=O)N[C@H](CC(C)C)C(=O)N[C@@H](CCN)C(=O)N[C@H](C)C(=O)N[C@H](CC(C)C)C(=O)N[C@H](CO)C(=O)N[C@@H](CCN)C(N)=O)[C@H](C)O)[C@H](C)O [D89(Lys^1-6 Dab-2), Ac-KL(L-Dab)SLL(L-Dab)TLSAAK(L-Dab)(L-Dab)KLATLL(L-Dab)ALS(L-Dab)-amide] (Ac-[dK][dL][Dab][dS][dL][dL][Dab][dT][dL][dS][dA][dA][dK][Dab][Dab][dK][dL][dA][dT][dL][dL][Dab][dA][dL][dS][Dab]-NH2)",0.7,0.7,0.7,0.7,0.7,0.7,0.7
